# Source: patent US20140228278A1, “ANTIBIOTICS AND METHODS FOR MANUFACTURING THE SAME” (priority 2011, published 2014)
# What was measured:
# B. amylo. FZB42 = type: cell-based, Bacillus amyloliquefaciens
# [1] = tested on: any other tested bacterium; type: cell-based
# Bacillus subtilis CU1065 = experiment: Agar bioassay, growth suppression seen as clear zone; type: cell-based; set-up: key: ++: inhibition; +: weak inhibition; −: no inhibition; settings: indicator strain Bacillus subtilis CU1065
# Bacillus brevis ATCC8246 = type: cell-based; set-up: key: ++: inhibition; +: weak inhibition; −: no inhibition
# Bacillus megaterium 7A1 = type: cell-based; set-up: key: ++: inhibition; +: weak inhibition; −: no inhibition
# [2] = tested on: Staphylococcus aureus st. NRS384/USA300 [MRSA]; type: cell-based
# [3] = tested on: B. anthracis strain Sterne; type: cell-based, Bacillus anthracis
# Micrococcus luteus = type: cell-based; set-up: key: ++: inhibition; +: weak inhibition; −: no inhibition
# Arthrobacter sp. = type: cell-based; set-up: key: ++: inhibition; +: weak inhibition; −: no inhibition
# [4] = tested on: Bacillus cereus ATCC14579; type: cell-based; set-up: key: ++: inhibition; +: weak inhibition; −: no inhibition
# B. anthracis = type: cell-based, Bacillus anthracis
# B. pumilus ATCC 7061 = type: cell-based, Bacillus pumilus
# [5] = tested on: Enterococcus faecalis st. U503 [VRE]; type: cell-based
# Paenibacillus polymyxa = type: cell-based; set-up: key: ++: inhibition; +: weak inhibition; −: no inhibition
# [6] = tested on: Bacillus licheniformis ATCC9789; type: cell-based; set-up: key: ++: inhibition; +: weak inhibition; −: no inhibition
# E. coli K12 = experiment: Agar bioassay, growth suppression seen as clear zone; type: cell-based; set-up: key: ++: inhibition; +: weak inhibition; −: no inhibition; settings: indicator strain E. coli K12
# Staphylococcus aureus = experiment: as above; type: cell-based; set-up: key: ++: inhibition; +: weak inhibition; −: no inhibition; settings: indicator strain Staphylococcus aureus
# Erwinia caratovora = type: cell-based; set-up: key: ++: inhibition; +: weak inhibition; −: no inhibition
# Bacillus pumilus = type: cell-based; set-up: key: ++: inhibition; +: weak inhibition; −: no inhibition
# [7] = tested on: Paenibacillus granivorans; type: cell-based; set-up: key: ++: inhibition; +: weak inhibition; −: no inhibition
# Klebsiella terrigena = experiment: Agar bioassay, growth suppression seen as clear zone; type: cell-based; set-up: key: ++: inhibition; +: weak inhibition; −: no inhibition; settings: indicator strain Klebsiella terrigena
# Bacillus subtilis 168 = experiment: as above; type: cell-based; set-up: key: ++: inhibition; +: weak inhibition; −: no inhibition; settings: indicator strain Bacillus subtilis 168
# Pseudomonas sp. = experiment: as above; type: cell-based; set-up: key: ++: inhibition; +: weak inhibition; −: no inhibition; settings: indicator strain Pseudomonas sp.
# Streptococcus pyogenes = type: cell-based
# Listeria monocytogenes = type: cell-based
# [8] = tested on: B. anthracis strain Sterne; type: cell-based, Bacillus anthracis; remark: listed apart in the source
# B. amylo. (NRRL B-14393) = type: cell-based, Bacillus amyloliquefaciens
# Bacillus sphaericus = type: cell-based; set-up: key: ++: inhibition; +: weak inhibition; −: no inhibition
# Bacillus subtilis HB0042 = experiment: Agar bioassay, growth suppression seen as clear zone; type: cell-based; set-up: key: ++: inhibition; +: weak inhibition; −: no inhibition; settings: indicator strain Bacillus subtilis HB0042
compound,measurement,setting,value
"CC[C@H](C)[C@H](NC(=O)c1nc(-c2nc(-c3csc(-c4nc(-c5csc(C(CCCN=C(N)N)N(C)C)n5)oc4C)n3)oc2C)oc1C)C(=O)N[C@H](c1nc(-c2nc(-c3nc(-c4nc(C5=NC(C(=O)N[C@@H](Cc6ccccc6)C(=O)O)C(C)O5)co4)co3)co2)co1)[C@@H](C)CC (stereo partly drawn) [PZN, plantazolicin]",Susceptibility to the action of PZN,B. amylo. FZB42,no observable inhibition
same,Inhibition zones in agar diffusion bioassay,[1],inhibition zones were not observed
same,Degree of inhibition in a bioassay,Bacillus subtilis CU1065,+
same,Degree of inhibition in a bioassay,Bacillus brevis ATCC8246,+
same,Degree of inhibition in a bioassay,Bacillus megaterium 7A1,++
same,Growth inhibition in microbroth dilution bioassay,[2],unaffected
same,Growth inhibition / activity against B. anthracis in microbroth dilution bioassay,[3],potent growth inhibition
same,MIC99,[3],4 µg/mL
same,Degree of inhibition in a bioassay,Micrococcus luteus,+
same,Degree of inhibition in a bioassay,Arthrobacter sp.,−
same,Degree of inhibition in a bioassay,[4],+
same,Cell morphology by DIC microscopy,B. anthracis,massive lysis
same,Susceptibility to the action of PZN,B. pumilus ATCC 7061,no observable inhibition
same,Growth inhibition in microbroth dilution bioassay,[5],unaffected
same,Degree of inhibition in a bioassay,Paenibacillus polymyxa,−
same,Degree of inhibition in a bioassay,[6],+
same,Degree of inhibition in a bioassay,E. coli K12,−
same,Degree of inhibition in a bioassay,Staphylococcus aureus,−
same,Degree of inhibition in a bioassay,Erwinia caratovora,−
same,Degree of inhibition in a bioassay,Bacillus pumilus,−
same,Degree of inhibition in a bioassay,[7],+
same,Degree of inhibition in a bioassay,Klebsiella terrigena,−
same,Degree of inhibition in a bioassay,Bacillus subtilis 168,+
same,Degree of inhibition in a bioassay,Pseudomonas sp.,−
same,Growth inhibition in microbroth dilution bioassay,Streptococcus pyogenes,only inhibited by very high concentrations
same,Growth inhibition in microbroth dilution bioassay,Listeria monocytogenes,unaffected
same,Mode of action (bactericidal) on reculturing of treated cells in the absence of PZN,[8],bactericidal
same,Susceptibility to the action of PZN,B. amylo. (NRRL B-14393),completely resistant
same,Degree of inhibition in a bioassay,Bacillus sphaericus,+
same,Degree of inhibition in a bioassay,Bacillus subtilis HB0042,++
